#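 Step 1: Grow cells in 96-well plates. Step 2: Expose to compound for 48 hours at 5 concentrations. Step 3: Interpolate endpoints linearly; if unreached, use highest concentration. GI50 marks 50% less growth. TGI denotes the concentration required for complete inhibition of growth.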
# Experiments:
# Test in all cases: DTP human tumour cell line panel, 48 h
# KM12 colon = test system: KM12 colon
# T-47D breast = test system: T-47D breast
# NCI-H460 lung = test system: NCI-H460 lung
# ACHN renal = test system: ACHN renal
# SK-MEL-2 melanoma = test system: SK-MEL-2 melanoma
# MCF7 breast = test system: MCF7 breast
# U251 CNS = test system: U251 CNS
# HT29 colon = test system: HT29 colon
# HCT-116 colon = test system: HCT-116 colon
# BT-549 breast = test system: BT-549 breast
# RPMI-8226 leukemia = test system: RPMI-8226 leukemia
# K-562 leukemia = test system: K-562 leukemia
# RXF 393 renal = test system: RXF 393 renal
# CCRF-CEM leukemia = test system: CCRF-CEM leukemia
# MOLT-4 leukemia = test system: MOLT-4 leukemia
# NCI-H226 lung = test system: NCI-H226 lung
# HCT-15 colon = test system: HCT-15 colon
# CAKI-1 renal = test system: CAKI-1 renal
# UO-31 renal = test system: UO-31 renal
# PC-3 prostate = test system: PC-3 prostate
# SK-MEL-28 melanoma = test system: SK-MEL-28 melanoma
# COLO 205 colon = test system: COLO 205 colon
# M14 melanoma = test system: M14 melanoma
# NCI/ADR-RES ovarian = test system: NCI/ADR-RES ovarian
# OVCAR-3 ovarian = test system: OVCAR-3 ovarian
# MALME-3M melanoma = test system: MALME-3M melanoma
# A549 NSCLC = test system: A549 NSCLC
# SNB-19 CNS = test system: SNB-19 CNS
# NCI-H522 lung = test system: NCI-H522 lung
smiles,measurement,setting,value
COc1cc(-c2nc(Nc3nc4ccccc4[nH]3)nc(N)c2C#N)cc(OC)c1OC,GI50,KM12 colon,0.714 µM
same,TGI,KM12 colon,> 100 µM
same,GI50,T-47D breast,4.27 µM
same,TGI,T-47D breast,52.8 µM
same,GI50,NCI-H460 lung,1.77 µM
same,TGI,NCI-H460 lung,> 54.2 µM
same,GI50,ACHN renal,14.5 µM
same,TGI,ACHN renal,> 100 µM
same,GI50,SK-MEL-2 melanoma,2.69 µM
same,TGI,SK-MEL-2 melanoma,34 µM
same,GI50,MCF7 breast,0.503 µM
same,TGI,MCF7 breast,> 33.8 µM
same,GI50,U251 CNS,10.8 µM
same,TGI,U251 CNS,72.4 µM
same,GI50,HT29 colon,0.877 µM
same,TGI,HT29 colon,24.1 µM
same,GI50,HCT-116 colon,4.52 µM
same,TGI,HCT-116 colon,25.8 µM
same,GI50,BT-549 breast,0.857 µM
same,TGI,BT-549 breast,37.1 µM
same,GI50,RPMI-8226 leukemia,12.5 µM
same,TGI,RPMI-8226 leukemia,> 100 µM
same,GI50,K-562 leukemia,8.45 µM
same,TGI,K-562 leukemia,> 100 µM
same,GI50,RXF 393 renal,0.378 µM
same,TGI,RXF 393 renal,23.7 µM
same,GI50,CCRF-CEM leukemia,6.17 µM
same,TGI,CCRF-CEM leukemia,> 100 µM
same,GI50,MOLT-4 leukemia,18.2 µM
same,TGI,MOLT-4 leukemia,> 100 µM
same,GI50,NCI-H226 lung,32.7 µM
same,TGI,NCI-H226 lung,> 89.3 µM
same,GI50,HCT-15 colon,18.1 µM
same,TGI,HCT-15 colon,> 100 µM
same,GI50,CAKI-1 renal,6.04 µM
same,TGI,CAKI-1 renal,> 60.6 µM
same,GI50,UO-31 renal,85.7 µM
same,TGI,UO-31 renal,> 100 µM
same,GI50,PC-3 prostate,1.65 µM
same,TGI,PC-3 prostate,> 93.3 µM
same,GI50,SK-MEL-28 melanoma,19.1 µM
same,TGI,SK-MEL-28 melanoma,> 100 µM
same,GI50,COLO 205 colon,1.74 µM
same,TGI,COLO 205 colon,> 50.7 µM
same,GI50,M14 melanoma,2.34 µM
same,TGI,M14 melanoma,36.5 µM
same,GI50,NCI/ADR-RES ovarian,> 100 µM
same,TGI,NCI/ADR-RES ovarian,> 100 µM
same,GI50,OVCAR-3 ovarian,0.286 µM
same,TGI,OVCAR-3 ovarian,3.61 µM
same,GI50,MALME-3M melanoma,21.7 µM
same,TGI,MALME-3M melanoma,> 80.1 µM
same,GI50,A549 NSCLC,30.7 µM
same,TGI,A549 NSCLC,> 100 µM
same,GI50,SNB-19 CNS,21 µM
same,TGI,SNB-19 CNS,> 100 µM
same,GI50,NCI-H522 lung,0.45 µM
